Test results from patent publication US10513709B2, “Somatic cell nuclear transfer methods” (priority 2013, dated 2019).

Key:
[1] = system: enucleated mouse oocytes; experiment: Chromosome segregation at the first mitosis after nuclear transfer; type: cell-based
Source text: To further investigate the mechanism of genomic instability after somatic cell nuclear transfer, we transferred genomes of somatic and embryonic mouse cells into enucleated mouse oocytes. As a control for our manipulations, we transplanted oocyte genomes from one MII oocyte to another. We first quantified the number of abnormal anaphase figures in unmanipulated oocytes, including bridges, fragments, and missegregating chromosomes. Abnormalities in parthenotes were few, or less than 5 percent at anaphase of the second meiosis and the first mitosis (FIG. 13A). […] Upon transfer of mitotic fibroblast or ES cell genomes into MII oocytes, the frequency of these abnormalities remained unaltered, or 6% and 6.9%. […] Abnormal anaphase figures were further increased when using interphase genomes of either cumulus cells or T cells.
As different cell types are known to differ in their gene expression pattern, we first determined whether gene expression during the first cell cycle was required for a normal chromosome segregation at the first embryonic mitosis. […] As cell-type specific gene expression appeared to be irrelevant to chromosome segregation at the first mitosis, we investigated whether other cell-type specific properties of the genome were of importance. It appeared conceivable that for normal chromosome segregation, the prior duplication of the genome at interphase must also be normal. To distinguish whether the chromosome segregation we observed were due to abnormal spindle attachment to chromosomes or due to structural deficiencies that can arise during DNA replication, we stained anaphases with antibodies recognizing centromeres. […]
To determine whether other parameters known to affect the developmental efficiency after somatic cell nuclear transfer affected the fidelity of segregation at the first mitosis, we investigated the role of the nuclear structure. […] We transferred somatic nuclei within the first hour post activation, and analyzed chromosome segregation at the first mitosis. […]

[2] = system: enucleated human oocytes; experiment: Activation and polar body extrusion after transfer of a mitotic somatic genome; type: cell-based
Experimental: We next sought to determine the timing and molecular mechanism of these chromosomal abnormalities. We reasoned that if the removal of the oocyte spindle removed essential components, then these defects should be apparent at the second meiotic division. We removed the oocyte spindle-chromosome complex, and transferred the mitotic genome of a somatic cell that had been collected upon treatment with nocodazole and were kept on ice prior to transfer (FIG. 12A). Remarkably, within 1-2 hours post transfer, birefringent spindles were assembled in oocytes and chromosomes were aligned on the metaphase plate (FIGS. 12A, 12B, 12C). Upon artificial activation using a calcium ionophore and puromycin, 16/19 oocytes segregated somatic cell chromatin into a polar body and formed a single pronucleus in the activated oocyte (FIG. 12F-I). And like upon segregation of oocyte chromatin, a midbody formed and the chromosome passenger complex component survivin localized to the midbody (FIG. 12E). To examine the accuracy of chromosome segregation, (pseudo-) polar bodies were biopsied and the karyotype determined using nucleotide polymorphism arrays. […] However, when we analyzed the karyotype of blastomeres using nucleotide arrays, we found a large number of karyotypic abnormalities (FIG. 12I-L). […]

[3] = system: human oocytes; experiment: Development of human somatic cell nuclear transfer oocytes beyond the cleavage stage; type: cell-based
Experimental: Oocytes were enucleated using microtubule birefringence (Oosight) as described previously by Noggle et al., 2011. Nuclear transfer was performed by fusion of somatic cells to oocytes using inactivated Sendai virus diluted 1:10 to 1:20 in suspension medium. Fusion was confirmed visually. 1-3 hours post fusion, oocytes were activated using 3 μM ionomycin in Global total for 5 minutes at 37 degrees celsius, followed by culture in 10 μM puromycin, 2 mM 6-DMAP, as well as the histone deacetylase (HDAC) inhibitors scriptaid and nch51 for 4 to 4.5 hours. Activated constructs were cultured in HDAC inhibitor for an additional 10-16 hours, followed by culture in Global total only. Culture was performed in a MINC incubator fed with gas containing 6% CO2, 5% oxygen and 89% nitrogen. Calcium-free medium was used for some of the manipulations resulting in nuclear transfer ES cells.
For some of the experiments described above additional modifications were introduced as described in Tachibana et al., 2013. Caffeine at a 1 mM concentration was added to the incubation medium during enucleation and oocyte fusion. Oocytes were activated using 2-4 pulses of 50 μs width at 2.7 kV/cm in mannitol containing fusion medium using an LF201 pulser (Nepagene), followed by 4 hours of culture in 2 mM 6-DMAP. Activated constructs were cultured in Global total containing 10% FBS and TSA for 12 hours, followed by culture to the blastocysts stage in medium containing 10% FBS.
The derivation of nuclear transfer ES cell lines from BJ fibroblasts at passage 11 was performed using nuclear transfer 30 min prior to the removal of the oocyte genome in the presence of 1 mM caffeine. Derivation of the adult cell NT-ES cell line was performed using somatic cells at passage 8, from a subject with T1D (ID-1018). Oocytes were transported in GMOPSplus containing 1 mM caffeine. Upon completion of the manipulation, oocytes were incubated for 45 min-1 h in calcium-free MCZB, then placed in calcium containing medium for 10 min prior to activation and culture as described above. Oocyte activation was performed within 2 hours post transfer using 4 electrical pulses, followed by incubation in medium containing HDAC inhibitors scriptaid and nch51, in addition to 10 μg/ml puromycin and 2 mM 6-DMAP for 4 hours, and thereafter, medium containing HDAC inhibitor for 15 hours. Culture was performed in a Heracell 150i incubator containing 5% CO2 at 37° C., in Global medium (IVFonline LGGG-050) containing 10% fetal bovine serum. ES cell derivation was conducted in medium containing DMEM/F12 supplemented with 10% KO-SR and 10% FBS, Rock inhibitor Y-27632, thiazovivin, non-essential amino acids, 10 ng/ml bFGF, Glutamax, and beta mercaptoethanol (all reagents from Life Technologies). Upon attachment, trophectoderm cells were ablated using laser pulses using a Lykos laser (Hamilton Thorne). Outgrowths were apparent within 10 days of plating, and were picked when colonies reached a size of about 1 mm in diameter. Passaging was done enzymatically using TrpLE (Life Technologies) and standard ES cell medium (substituting FBS with KO-SR and DMEM/F12 with KO-DMEM) using Rock inhibitor Y-27632 for the first day after plating.

[4] = system: oocytes; settings: oocyte activation with puromycin versus 6-dmap; cited from earlier work
[5] = enucleated oocytes, agent used at activation / first 17 hours of embryo culture

Which “dividing embryos severely abnormal” value ([1]; somatic nuclei transferred within first hour after activation and kinase inhibition with 6-dmap) does the source give for `CN(C)c1ncnc2nc[nH]c12` [6-dmap, 6-(dimethylamino)purine] here?
The value was 90%.

What does the source list for `COc1ccc(C[C@H](N)C(=O)N[C@H]2[C@@H](O)[C@H](n3cnc4c(N(C)C)ncnc43)O[C@@H]2CO)cc1` [puromycin]?
oocytes segregating somatic chromatin into a polar body and forming a single pronucleus ([2]; activation with a calcium ionophore and puromycin): 16/19; oocyte activation shown by polar body extrusion ([2]; puromycin for 4 hours without meiotic kinase inhibitor, M-phase somatic genome): efficient polar body extrusion; development after somatic cell nuclear transfer [3, 5]: development still arrested at cleavage stages; development after somatic cell nuclear transfer ([3]; oocyte genome not removed, puromycin for oocyte activation): efficient development to the blastocyst stage; efficiency of parthenogenesis [4]: more efficient

With `Cn1c(=O)c2c(ncn2C)n(C)c1=O` [caffeine] as the compound, how does the “efficiency and quality of blastocysts” value ([3]; caffeine also during oocyte transport, calcium omitted from manipulation medium) read?
Its value is “most efficient and high quality blastocyts”.

What about the blastocyst development ([3]; electrical pulse for activation and caffeine during oocyte manipulation) of the same compound?
Its blastocyst development is 10%.

Which “frequency of chromosome segregation errors” value ([1]; first mitosis) does the source give for `O=C(CCCCCN1C(=O)c2cccc3cccc(c23)C1=O)NO` [scriptaid, 6-(1,3-Dioxo-1H,3H-benzo[de]isoquinolin-2-yl)-hexanoic acid hydroxyamide] here?
The value was “decreased the frequency of chromosome segregation errors”.

And the “development after somatic cell nuclear transfer” value [3, 5]?
Its value is “development to the morula and blastocyst stage at a low frequency”.

Which “frequency of normal mitotic figures” value ([1]; added to culture medium during first cell cycle) does the source give for `CC[C@H](C)[C@@H]1NC(=O)CNC(=O)[C@@H]2Cc3c([nH]c4cc(O)ccc34)[S+]([O-])C[C@@H](NC(=O)CNC1=O)C(=O)N[C@@H](CC(N)=O)C(=O)N1C[C@H](O)C[C@H]1C(=O)N[C@@H]([C@@H](C)[C@@H](O)CO)C(=O)N2` (stereo partly drawn) [alpha amanitin] here?
Its value is “did not significantly increase”.
